Measured values from ChEMBL document CHEMBL4813981, “Synthesis and in vitro antibacterial activity of new aminothiazole-oximepiperidone cephalosporins” (2021).

Columns and labels:
[1] = tested on: Escherichia coli; test: Antibacterial activity against Escherichia coli NCTC 13353 assessed as reduction in bacterial growth; format: functional
[2] = tested on: Klebsiella pneumoniae; test: Antibacterial activity against Klebsiella pneumoniae ATCC BAA-1705 assessed as reduction in bacterial growth; format: functional
[3] = tested on: Acinetobacter baumannii; test: Antibacterial activity against Acinetobacter baumannii NCTC 13304 assessed as reduction in bacterial growth; format: functional
[4] = tested on: Pseudomonas aeruginosa; test: Antibacterial activity against Pseudomonas aeruginosa ATCC 27853 assessed as reduction in bacterial growth; format: functional
[5] = tested on: Escherichia coli; test: Antibacterial activity against Escherichia coli ATCC 35218 assessed as reduction in bacterial growth in the presence of Avibactam; format: functional
[6] = tested on: Acinetobacter baumannii; test: Antibacterial activity against Carbapenem- resistant Acinetobacter baumannii 17-2 assessed as reduction in bacterial growth; format: functional
[7] = tested on: Acinetobacter baumannii; test: Antibacterial activity against Carbapenem- resistant Acinetobacter baumannii 17-8 assessed as reduction in bacterial growth; format: functional
[8] = tested on: Acinetobacter baumannii; test: Antibacterial activity against Carbapenem- resistant Acinetobacter baumannii 17-10 assessed as reduction in bacterial growth; format: functional
[9] = tested on: Acinetobacter baumannii; test: Antibacterial activity against Carbapenem- resistant Acinetobacter baumannii 17-12 assessed as reduction in bacterial growth; format: functional
[10] = tested on: Klebsiella pneumoniae; test: Antibacterial activity against Carbapenem- resistant Klebsiella pneumoniae KR 15-9 assessed as reduction in bacterial growth; format: functional
[11] = tested on: Pseudomonas aeruginosa; test: Antibacterial activity against Carbapenem- resistant Pseudomonas aeruginosa 17-1 assessed as reduction in bacterial growth; format: functional
[12] = tested on: Pseudomonas aeruginosa; test: Antibacterial activity against Carbapenem- resistant Pseudomonas aeruginosa 17-5 assessed as reduction in bacterial growth; format: functional
[13] = tested on: Klebsiella pneumoniae; test: Antibacterial activity against Carbapenem- sensitive Klebsiella pneumoniae 17-6 overexpressing extended spectrum beta-lactamases assessed as reduction in bacterial growth; format: functional
[14] = tested on: Klebsiella pneumoniae; test: Antibacterial activity against Carbapenem- sensitive Klebsiella pneumoniae 17-7 overexpressing extended spectrum beta-lactamases assessed as reduction in bacterial growth; format: functional
[15] = tested on: Klebsiella pneumoniae; test: Antibacterial activity against Carbapenem- sensitive Klebsiella pneumoniae 17-8 overexpressing extended spectrum beta-lactamases assessed as reduction in bacterial growth; format: functional
[16] = tested on: Klebsiella pneumoniae; test: Antibacterial activity against Carbapenem- sensitive Klebsiella pneumoniae 17-9 overexpressing extended spectrum beta-lactamases assessed as reduction in bacterial growth; format: functional
[17] = tested on: Klebsiella pneumoniae; test: Antibacterial activity against Carbapenem- sensitive Klebsiella pneumoniae 17-10 overexpressing extended spectrum beta-lactamases assessed as reduction in bacterial growth; format: functional
[18] = tested on: Klebsiella pneumoniae; test: Antibacterial activity against Carbapenem- sensitive Klebsiella pneumoniae 17-12 overexpressing extended spectrum beta-lactamases assessed as reduction in bacterial growth; format: functional
[19] = tested on: Klebsiella pneumoniae; test: Antibacterial activity against Carbapenem- sensitive Klebsiella pneumoniae 17-14 overexpressing extended spectrum beta-lactamases assessed as reduction in bacterial growth; format: functional
[20] = tested on: Klebsiella pneumoniae; test: Antibacterial activity against ESBLs negative Carbapenem-sensitive Klebsiella pneumoniae 17-20 assessed as reduction in bacterial growth; format: functional
[21] = tested on: Escherichia coli; test: Antibacterial activity against ESBLs positive Carbapenem-sensitive Escherichia coli 17-2 assessed as reduction in bacterial growth; format: functional
[22] = tested on: Escherichia coli; test: Antibacterial activity against ESBLs positive Carbapenem-sensitive Escherichia coli 17-8 assessed as reduction in bacterial growth; format: functional
[23] = tested on: Escherichia coli; test: Antibacterial activity against ESBLs positive Carbapenem-sensitive Escherichia coli 17-14 assessed as reduction in bacterial growth; format: functional
[24] = tested on: Escherichia coli; test: Antibacterial activity against ESBLs positive Carbapenem-sensitive Escherichia coli 17-17 assessed as reduction in bacterial growth; format: functional
[25] = tested on: Escherichia coli; test: Antibacterial activity against ESBLs positive Carbapenem-sensitive Escherichia coli 17-18 assessed as reduction in bacterial growth; format: functional
[26] = tested on: Escherichia coli; test: Antibacterial activity against ESBLs positive Carbapenem-sensitive Escherichia coli 17-21 assessed as reduction in bacterial growth; format: functional
[27] = tested on: Escherichia coli; test: Antibacterial activity against ESBLs negative Carbapenem-sensitive Escherichia coli 17-7 assessed as reduction in bacterial growth; format: functional
[28] = tested on: Escherichia coli; test: Antibacterial activity against ESBLs negative Carbapenem-sensitive Escherichia coli 17-9 assessed as reduction in bacterial growth; format: functional
[29] = tested on: Escherichia coli; test: Antibacterial activity against ESBLs negative Carbapenem-sensitive Escherichia coli 17-16 assessed as reduction in bacterial growth; format: functional
[30] = tested on: Escherichia coli; test: Antibacterial activity against ESBLs negative Carbapenem-sensitive Escherichia coli 17-20 assessed as reduction in bacterial growth; format: functional
[31] = tested on: Enterobacter cloacae; test: Antibacterial activity against Enterobacter cloacae 17-1 assessed as reduction in bacterial growth; format: functional
[32] = tested on: Enterobacter cloacae; test: Antibacterial activity against Enterobacter cloacae 17-2 assessed as reduction in bacterial growth; format: functional
[33] = tested on: Enterobacter cloacae; test: Antibacterial activity against Enterobacter cloacae 17-10 assessed as reduction in bacterial growth; format: functional
[34] = tested on: Klebsiella aerogenes; test: Antibacterial activity against Enterobacter aerogenes 17-3 assessed as reduction in bacterial growth; format: functional
[35] = tested on: Klebsiella aerogenes; test: Antibacterial activity against Enterobacter aerogenes 17-5 assessed as reduction in bacterial growth; format: functional
[36] = tested on: Klebsiella aerogenes; test: Antibacterial activity against Enterobacter aerogenes 15-3 assessed as reduction in bacterial growth; format: functional
[37] = tested on: Klebsiella aerogenes; test: Antibacterial activity against Enterobacter aerogenes 15-6 assessed as reduction in bacterial growth; format: functional
[38] = tested on: Pseudomonas aeruginosa; test: Antibacterial activity against Carbapenem- sensitive Pseudomonas aeruginosa 17-7 assessed as reduction in bacterial growth; format: functional
[39] = tested on: Pseudomonas aeruginosa; test: Antibacterial activity against Carbapenem- sensitive Pseudomonas aeruginosa 17-21 assessed as reduction in bacterial growth; format: functional
[40] = tested on: Acinetobacter baumannii; test: Antibacterial activity against Carbapenem- resistant Acinetobacter baumannii 17-8 assessed as reduction in bacterial growth in the presence of Avibactam; format: functional
[41] = tested on: Klebsiella pneumoniae; test: Antibacterial activity against ESBLs positive Carbapenem-sensitive Klebsiella pneumoniae 17-3 assessed as reduction in bacterial growth in the presence of Avibactam; format: functional
[42] = tested on: Klebsiella pneumoniae; test: Antibacterial activity against ESBLs positive Carbapenem-sensitive Klebsiella pneumoniae 17-9 assessed as reduction in bacterial growth in the presence of Avibactam; format: functional
[43] = tested on: Klebsiella aerogenes; test: Antibacterial activity against Enterobacter aerogenes 17-2 assessed as reduction in bacterial growth in the presence of Avibactam; format: functional
[44] = tested on: Enterobacter cloacae; test: Bactericidal activity against Enterobacter cloacae 17-10 assessed as reduction in bacterial growth; format: functional
[45] = tested on: Acinetobacter baumannii; test: Bactericidal activity against Carbapenem- resistant Acinetobacter baumannii 17-2 assessed as reduction in bacterial growth in the presence of avibactam; format: functional
[46] = tested on: Enterobacter cloacae; test: Bactericidal activity against Enterobacter cloacae 17-2 assessed as reduction in bacterial growth in the presence of avibactam; format: functional
[47] = tested on: Enterobacter cloacae; test: Bactericidal activity against Enterobacter cloacae 17-8 assessed as reduction in bacterial growth in the presence of avibactam; format: functional
[48] = tested on: Enterobacter cloacae; test: Bactericidal activity against Enterobacter cloacae 17-9 assessed as reduction in bacterial growth in the presence of avibactam; format: functional
[49] = tested on: Klebsiella aerogenes; test: Bactericidal activity against Enterobacter aerogenes 17-4 assessed as reduction in bacterial growth in the presence of avibactam; format: functional
[50] = tested on: Pseudomonas aeruginosa; test: Bactericidal activity against carbapenem-sensitive Pseudomonas aeruginosa 17-29 assessed as reduction in bacterial growth in the presence of avibactam; format: functional
[51] = tested on: Pseudomonas aeruginosa; test: Bactericidal activity against Pseudomonas aeruginosa ATCC 27853 assessed as reduction in bacterial growth in the presence of avibactam; format: functional
[52] = tested on: Klebsiella aerogenes; test: Antibacterial activity against Enterobacter aerogenes 15-3 assessed as reduction in bacterial growth

Nc1nc(/C(=N/OCc2cc(=O)c(O)cn2O)C(=O)N[C@@H]2C(=O)N3C(C(=O)O)=CCS[C@H]23)cs1
2 µg/mL: MIC [21] | MIC [27] | MIC [29] | MIC [34] | MBC [47] | MBC [48]
0.06 µg/mL: MIC [20]
32 µg/mL: MIC [11]
1 µg/mL: MIC [4] | MIC [18] | MIC [31] | MIC [33] | MIC [43] | MBC [49]
> 8 µg/mL: MBC [44]
16 µg/mL: MIC [22] | MIC [37] | MIC [40] | MBC [45]
> 64 µg/mL: MIC [1] | MIC [3] | MIC [6] | MIC [7] | MIC [8] | MIC [9] | MIC [10] | MIC [14] | MIC [15] | MIC [17] | MIC [24] | MIC [32] | MIC [36] | MIC [52]
8 µg/mL: MIC [25] | MBC [46] | MBC [50]
0.25 µg/mL: MIC [5] | MIC [13] | MIC [30] | MIC [38]
0.5 µg/mL: MIC [28] | MIC [42]
64 µg/mL: MIC [2] | MIC [12] | MIC [16] | MIC [23] | MIC [26] | MIC [35]
4 µg/mL: MIC [19] | MIC [39] | MIC [41] | MBC [51]

CC(C)(O/N=C(\C(=O)N[C@@H]1C(=O)N2C(C(=O)[O-])=C(C[n+]3ccccc3)CS[C@H]12)c1csc(N)n1)C(=O)O [CEFTAZIDIME]
64 µg/mL: MIC [1] | MIC [2] | MIC [3] | MIC [9] | MIC [10] | MIC [12] | MIC [16] | MIC [32]
2 µg/mL: MIC [19] | MIC [21] | MIC [25] | MIC [41]
> 64 µg/mL: MIC [6] | MIC [7] | MIC [14] | MIC [15] | MIC [36] | MIC [52]
0.125 µg/mL: MIC [20] | MIC [27] | MIC [38]
4 µg/mL: MIC [18] | MIC [39] | MBC [44] | MBC [50] | MBC [51]
0.5 µg/mL: MIC [28] | MIC [29] | MIC [31] | MIC [34] | MIC [42] | MIC [43] | MBC [49]
> 2 µg/mL: MBC [48]
16 µg/mL: MIC [17] | MIC [22] | MIC [23] | MIC [35]
0.06 µg/mL: MIC [5]
32 µg/mL: MIC [8] | MIC [11] | MIC [24]
8 µg/mL: MIC [13] | MIC [26] | MIC [37] | MIC [40] | MBC [45]
1 µg/mL: MIC [4] | MIC [33] | MBC [46] | MBC [47]

C[C@@H](O)[C@H]1C(=O)N2C(C(=O)O)=C(S[C@@H]3CN[C@H](C(=O)N(C)C)C3)[C@H](C)[C@H]12 [MEROPENEM]
0.06 µg/mL: MIC [14] | MIC [16] | MIC [37] | MIC [38]
2 µg/mL: MIC [39]
0.125 µg/mL: MIC [15] | MIC [32] | MIC [35]
> 64 µg/mL: MIC [10]
1 µg/mL: MIC [4] | MIC [19]
< 0.03 µg/mL: MIC [1] | MIC [13] | MIC [17] | MIC [18] | MIC [20] | MIC [21] | MIC [22] | MIC [23] | MIC [24] | MIC [25] | MIC [26] | MIC [27] | MIC [28] | MIC [29] | MIC [30] | MIC [31] | MIC [33] | MIC [34]
32 µg/mL: MIC [2] | MIC [7] | MIC [12]
16 µg/mL: MIC [3] | MIC [8] | MIC [9] | MIC [11]
4 µg/mL: MIC [36]
64 µg/mL: MIC [6]
